Measured values reported in PubChem BioAssay AID328 (DTP/NCI, 2004).
Inconclusive results and toxic doses are left out.

Test system: BDF1 mice, P388 leukemia ip, median survival T/C
Test: NCI In Vivo Anticancer Drug Screen. Data for tumor model P388 Leukemia (intraperitoneal) in B6D2F1 (BDF1) mice
Conditions: endpoint: median survival time, higher = longer survival
Procedure, shortened: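 Mice carrying the transplantable tumour receive compound or vehicle. Survival is followed in each arm, and the treated measure is divided by the vehicle measure.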

[1] = dose: 75.0 mg/kg/injection, schedule: Q01DX009 (ip), vehicle: saline with Tween-80
[2] = dose: 150.0 mg/kg/injection, schedule: Q01DX009 (ip), vehicle: saline with Tween-80
[3] = dose: 300.0 mg/kg/injection, schedule: Q01DX009 (ip), vehicle: saline with Tween-80
[4] = dose: 200.0 mg/kg/injection, schedule: Q04DX003 (ip), vehicle: Klucel (hydroxypropylcellulose) (HPC)
[5] = dose: 50.0 mg/kg/injection, schedule: Q01DX009 (ip), vehicle: saline with Tween-80
[6] = dose: 100.0 mg/kg/injection, schedule: Q04DX003 (ip), vehicle: saline with Tween-80
[7] = dose: 200.0 mg/kg/injection, schedule: Q04DX003 (ip), vehicle: saline with Tween-80
[8] = dose: 50.0 mg/kg/injection, schedule: Q04DX003 (ip), vehicle: saline with Tween-80
[9] = dose: 100.0 mg/kg/injection, schedule: Q01DX009 (ip), vehicle: saline with Tween-80
[10] = dose: 200.0 mg/kg/injection, schedule: Q01DX009 (ip), vehicle: saline with Tween-80

## O=C(O)CCc1ccccc1
[1]
  T/C: 95 % of control
dose: 100.0 mg/kg/injection, schedule: Q01DX001 (ip), vehicle: Klucel (hydroxypropylcellulose) (HPC)
  T/C: 104 % of control
[2]
  T/C: 109 % of control
dose: 200.0 mg/kg/injection, schedule: Q01DX001 (ip), vehicle: Klucel (hydroxypropylcellulose) (HPC)
  T/C: 100 % of control
[3]
  T/C: 100 % of control
dose: 400.0 mg/kg/injection, schedule: Q01DX001 (ip), vehicle: Klucel (hydroxypropylcellulose) (HPC)
  T/C: 100 % of control

## CNC(=O)NC1C(O)COC(OC)C1O (centres undefined)
dose: 150.0 mg/kg/injection, schedule: Q01DX001 (ip), vehicle: saline
  T/C: 104 % of control
dose: 300.0 mg/kg/injection, schedule: Q01DX001 (ip), vehicle: saline
  T/C: 109 % of control

## O=C(c1ccccc1Br)C(Br)C(Br)c1ccccc1 (centres undefined)
dose: 100.0 mg/kg/injection, schedule: Q04DX003 (ip), vehicle: Klucel (hydroxypropylcellulose) (HPC)
  T/C: 120 % of control
[4]
  T/C: 110 % of control

## CC1=NNB(O)c2ccsc21
dose: 12.5 mg/kg/injection, schedule: Q01DX009 (ip), vehicle: saline with Tween-80
  T/C: 107 % of control
dose: 25.0 mg/kg/injection, schedule: Q01DX009 (ip), vehicle: saline with Tween-80
  T/C: 90 % of control
[5]
  T/C: 96 % of control

## CC(=O)OCC(OC(C)=O)C(OC(C)=O)C(OC(C)=O)C1COC(C)(C)O1 (centres undefined)
[1]
  T/C: 94 % of control
[2]
  T/C: 86 % of control
[3]
  T/C: 91 % of control

## FC(F)(F)c1nc2nc(Cl)c(Cl)nc2[nH]1
dose: 10.0 mg/kg/injection, schedule: Q01DX009 (ip), vehicle: other
  T/C: 100 % of control
dose: 20.0 mg/kg/injection, schedule: Q01DX009 (ip), vehicle: other
  T/C: 109 % of control
dose: 26.6 mg/kg/injection, schedule: Q01DX009 (ip), vehicle: other
  T/C: 120 % of control
dose: 44.0 mg/kg/injection, schedule: Q04DX003 (ip), vehicle: other
  T/C: 118 % of control
dose: 100.0 mg/kg/injection, schedule: Q04DX003 (ip), vehicle: other
  T/C: 150 % of control

## CC1=C2CC(C)(C)/C=C\C(=O)/C(C)=C\C3=CC(C)(O)CC3(O2)C1=O (centres undefined)
dose: 0.16 mg/kg/injection, schedule: Q01DX009 (ip), vehicle: saline + alcohol
  T/C: 93 % of control
dose: 0.31 mg/kg/injection, schedule: Q01DX009 (ip), vehicle: saline + alcohol
  T/C: 118 % of control
dose: 0.62 mg/kg/injection, schedule: Q01DX009 (ip), vehicle: saline + alcohol
  T/C: 120 % of control
dose: 1.25 mg/kg/injection, schedule: Q01DX009 (ip), vehicle: saline + alcohol
  T/C: 118 % of control
dose: 10.0 mg/kg/injection, schedule: Q01DX009 (ip), vehicle: saline + alcohol
  T/C: 154 % of control

## O=C(O)c1ccc(NS(=O)(=O)Cc2ccccc2)cc1
dose: 100.0 mg/kg/injection, schedule: Q01DX009 (ip), vehicle: Klucel (hydroxypropylcellulose) (HPC)
  T/C: 123 % of control
dose: 200.0 mg/kg/injection, schedule: Q01DX009 (ip), vehicle: Klucel (hydroxypropylcellulose) (HPC)
  T/C: 123 % of control
dose: 400.0 mg/kg/injection, schedule: Q01DX009 (ip), vehicle: Klucel (hydroxypropylcellulose) (HPC)
  T/C: 123 % of control

## CCOC(=O)C(O)(NC(=O)N/N=C/c1ccccc1)C(=O)OCC
[6]
  T/C: 104 % of control
[7]
  T/C: 112 % of control
dose: 400.0 mg/kg/injection, schedule: Q04DX003 (ip), vehicle: saline with Tween-80
  T/C: 91 % of control

## O=C1c2ccccc2C(=O)N1CC(O)CCl (centres undefined)
[5]
  T/C: 104 % of control
[8]
  T/C: 100 % of control
[9]
  T/C: 112 % of control
[6]
  T/C: 104 % of control
[10]
  T/C: 88 % of control
[7]
  T/C: 108 % of control

## CNC(=O)NNc1ccccc1
[4]
  T/C: 115 % of control
dose: 400.0 mg/kg/injection, schedule: Q04DX003 (ip), vehicle: Klucel (hydroxypropylcellulose) (HPC)
  T/C: 115 % of control

## O=Cc1[nH]c(=O)[nH]c(=O)c1Br
[8]
  T/C: 112 % of control

## O=C(Nc1ccccc1)N(C(=O)C(F)(F)F)c1ccccc1
[5]
  T/C: 95 % of control
[9]
  T/C: 92 % of control
[10]
  T/C: 90 % of control

## NC(=O)CCC(N)C(=O)O.[Cl-].[Cl-].[Cl-].[Cl-].[Pt+2] (centres undefined)
dose: 1.56 mg/kg/injection, schedule: Q01DX009 (ip), vehicle: saline
  T/C: 106 % of control
dose: 3.13 mg/kg/injection, schedule: Q01DX009 (ip), vehicle: saline
  T/C: 107 % of control
dose: 6.25 mg/kg/injection, schedule: Q01DX009 (ip), vehicle: saline
  T/C: 124 % of control
dose: 12.5 mg/kg/injection, schedule: Q01DX009 (ip), vehicle: saline
  T/C: 153 % of control
dose: 25.0 mg/kg/injection, schedule: Q01DX009 (ip), vehicle: saline
  T/C: 172 % of control
